Reference: patent publication US20260223593A1, “Organic Compound, Light-Emitting Device, Display Apparatus, And Electronic Appliance” (Semiconductor Energy Laboratory Co., Ltd., priority 2023, published 2026)
In brackets after ≈: the same amount, converted by molar mass.

Assay: Solubility test of Ph3TP-hpp by LC/MS analysis (water solubility)
Format: physicochemical
Procedure: In the LC/MS analysis, LC (liquid chromatography) separation was carried out with Acquity UPLC (registered trademark) produced by Waters Corporation, and MS analysis (mass spectrometry) was carried out with Xevo G2 Tof MS produced by Waters Corporation. Acquity UPLC BEH C8 (2.1×100 mm, 1.7 μm) was used as a column for the LC separation. Acetonitrile was used for Mobile Phase A and a 0.1% aqueous solution of formic acid was used for Mobile Phase B. The injection amount of the sample was 5.0 μL. Note that in the analysis, the wavelength of a photodiode array detector was set to 246 nm±1 nm.
In a 5-mL sample bottle, 1 mg of Ph3TP-hpp was put and 2 mL of toluene was added thereto, and then this mixture was irradiated with ultrasonic waves for five minutes. After it was confirmed that the solid was completely dissolved, this solution was diluted by 2.5 times with acetonitrile, whereby the concentration of the solution was adjusted to 200 mg/L. This solution was diluted with acetonitrile, whereby solutions with concentrations of 20 mg/L, 10 mg/L, and 4 mg/L were prepared. The prepared solutions were subjected to LC/MS analysis, and the peak area values derived from Ph3TP-hpp, which were obtained at the respective solution concentrations, were used to form calibration curves.
Next, the water solubility of Ph3TP-hpp was measured.
In a 5-mL sample bottle, 1 mg of Ph3TP-hpp was put and 1 mL of water was added thereto, and then this mixture was irradiated with ultrasonic waves for five minutes. This mixture was filtered through a membrane filter to remove the solid, and the obtained filtrate was diluted by five times with acetonitrile. The obtained solution was subjected to LC/MS analysis.

SMILES: c1ccc(-c2cc(-c3cccc(N4CCCN5CCCN=C54)c3)c(-c3ccccc3)c(-c3ccccc3)c2-c2ccccc2)cc1 [Ph3TP-hpp, 1-(3′,4′,5′-triphenyl-1,1′:2′,1″-terphenyl-3-yl)-1,3,4,6,7,8-hexahydro-2H-pyrimide[1,2-a]pyrimidine]
- solubility of Ph3TP-hpp dissolved in 1 mL of water (1 mg in 1 mL of water, ultrasonic waves five minutes, membrane filtered, filtrate by LC/MS against calibration curve): 0.031 mg
- solubility at 5 min (thermodynamic from solid, water, from 0.031 mg in 1 mL, read-out: weight fraction of the water solubility): 31 µg/mL (≈ 52 µM)
- water solubility (in words) (water, LC/MS solubility test): low water solubility
